In paper PMC6796659, “Topoisomerase IB poisons induce histone H2A phosphorylation as a response to DNA damage in Leishmania infantum” (International Journal for Parasitology: Drugs and Drug …, 2019):

How the values were obtained:
[1] = system: iRFP L. infantum amastigotes infecting mouse splenocytes; experiment: Antileishmanial activity on iRFP L. infantum amastigotes in ex vivo murine splenic explants; assay type: cell-based, Leishmania infantum
Description: Five-week BALB/c female mice infected intraperitoneally with 1.5 × 10^9 metacyclic iRFP L. infantum promastigotes were sacrificed to eviscerate their spleens, which were processed to obtain a suspension of primary splenocytes. Briefly, freshly dissected spleens were washed with cold phosphate-buffered saline (PBS), cut in small pieces and incubated for 20 min with 5 mL of 2 mg/mL collagenase D (Sigma) prepared in buffer (10 mM HEPES, pH 7.4, 150 mM NaCl, 5 mM KCl, 1 mM MgCl2 and 1.8 mM CaCl2). Then, the cell suspension was passed through a 100 μm cell strainer, harvested by centrifugation (500×g for 7 min at 4 °C), washed twice with PBS, and resuspended in RPMI medium (Gibco) supplemented with 10 mM HEPES, 1 mM sodium pyruvate, 1xRPMI 1640 vitamin mix, 10% (v/v) FBS, 50 U/mL penicillin and 50 μg/mL streptomycin. The cell suspension was cultured in 384-well optical bottom black plates (Thermo Scientific) at 37 °C under 5% CO2 atmosphere.
The antileishmanial activity of the compounds was tested both in promastigotes and in amastigotes infecting mouse splenocytes. For this purpose, 384-well optical bottom black plates (Thermo Scientific) were seeded either with free-living iRFP L. infantum promastigotes or with splenic explants infected with iRFP L. infantum amastigotes, which were incubated at 26 °C or 37 °C, respectively. The viability of both iRFP L. infantum stages was measured by recording the fluorescence emitted by viable cells at 708 nm in an Odyssey (Li-Cor) infrared imaging system after a 72-h period of incubation with different concentrations of the compounds. Dose-response curves were obtained by plotting the infrared fluorescence emission of viable parasites vs. different concentrations of testing compounds and were fitted by nonlinear analysis using the Sigma-Plot 10.0 statistical package. The reduction of infrared emission with respect to the negative control was used to determine the 50% effective concentration to kill the parasites (EC50). Both controls and treated groups were tested with DMSO (drug vehicle) concentrations below 0.1%. All compounds and controls were assayed in triplicate.

[2] = Cytotoxicity on uninfected mouse splenocytes (Alamar Blue); assay type: cell-based; details: BALB/c, freshly isolated uninfected mouse splenocytes, non-infected mouse splenocytes, read-out: CC50 (μM) Murine Splenocytes
Description: Finally, the cytotoxicity of the compounds was assessed on freshly-isolated mouse splenocytes, which were obtained from uninfected BALB/c mice according to the protocol previously described. Viability of uninfected splenocytes was used to determine the cytotoxic concentration 50 (CC50) by means of the Alamar Blue staining method, according to manufacturer's recommendations (Invitrogen). Selectivity index (SI) for each compound was calculated as the ratio between the CC50 value obtained for splenic cells and the EC50 value for amastigotes.

[3] = system: histone H2A (Thr128) in L. infantum promastigotes; experiment: Histone H2A phosphorylation (γH2A) by Western blot; assay type: cell-based, Leishmania infantum; details: 10 μM, 0, 15, 60, 120 min
Description: To detect H2A phosphorylation by L. infantum promastigotes, parasites in exponential growing phase (5–6 x 10^6 cells/mL) were incubated at 26 °C with CPT derivatives and indenoisoquinolines at a final concentration in the supplemented 199 standard medium of 10 μM. Control cells were treated with the drug vehicle DMSO using concentrations below 0.1%. After 0, 15, 60 and 120-min incubations, promastigotes were harvested by centrifugation, washed twice in PBS and the pellet resuspended in lysis buffer containing 50 mM Tris (pH:7), 50 mM NaCl, 20 mM NaF, 0.1% Tween 20 and 2x protease inhibitors (PIERCE™ protease inhibitor mini tablets). Twenty micrograms of the different extracts were loaded onto 15% SDS-PAGE gels, electrophoresed and transferred to PVDF membranes (Immobilon-FL, Millipore) using a mini trans-blot electrophoretic transfer cell (Bio-Rad). Polyclonal γH2A antisera were used at a 1:2000 dilution and secondary goat anti-rabbit IgG IRDye680 (Li-Cor Biosciences) was used at a 1:15000 dilution. The peptide competition assay was done incubating the polyclonal γH2A antisera with 50 ng/mL of the appropriate peptide (with and without phosphorylation at Thr residue) in blocking buffer for 1 h at room temperature before blotting. Loading control was performed using a monoclonal α tubulin mouse antibody at 2 μg/mL (final concentration) and a goat anti-mouse IgG IRDye 800 (Li-Cor Biosciences) as secondary antibody. Bands were visualized in an Odissey® (Li-Cor Biosciences) infrared detection facility. The quantification of γH2A signal was done with Bio-Rad Quantity One Analysis Software.

Question: With `NCCCn1c2c(c3ccccc3c1=O)C(=O)c1ccccc1-2` [Compound 2] as the compound, how does the “SI (Selectivity Index)” value ([1]; CC50 (splenocytes)/EC50 (amastigotes)) read?
Answer: 4.9

Question: And the EC50 ([1]; Leishmania infantum, Splenocyte, splenic-infecting iRFP L. infantum amastigotes, 72 h, 37 °C, read-out: EC50 (μM) L. infantum amastigotes)?
Answer: 0.12 ± 0.05 µM

Question: And the CC50 [2]?
Answer: 0.59 ± 0.28 µM

Question: What about the “γH2A signal (H2A phosphorylation), Western blot” value [3] of the same compound?
Answer: strong γH2A signaling
